Legend:
[1] = tested on: Sprague-Dawley rats treated with lipopolysaccharide (septic shock model); assay: experimental model of septic shock: lipopolysaccharide-treated conscious rats, hemodynamic measurements and deaths; format: in vivo, rat; conditions: for number of treated rats that died: lipopolysaccharide-treated rats, 22 rats received L-NAME, 12 rats S-methyl cysteine; for mean arterial pressure after treatment: rats 72 hours after lipopolysaccharide 0.5 mg/kg i.p., L-NAME 25 μmole/kg or S-methyl-L-cysteine 200 nmol/kg infusion for 10 minutes + 500 nmol/kg bolus; for total peripheral resistance after treatment (in words): L-NAME 25 μmole/kg or S-methyl-L-cysteine 200 nmol/kg infusion + 500 nmol/kg bolus
Protocol: Male 16 week old Sprague-Dawley rats were anesthetized for surgical placement of intraaortic pressure tranducers and Dopplar flow probes around the abdominal aorta and the left main coronary artery. After 48 hours of recovery baseline measurements of arterial blood pressure, cardiac output (as Dopplar flow), and coronary blood flow (Dopplar) were obtained in conscious unrestrained animals. The rats were then treated with intraperotoneal injections of purified lipopolysaccharide 0.5 mg/kg. After 72 hours when the induction of iNOS had produced a fall in blood pressure, measurements were repeated. Each rat then received either 25 μmole/kg of the nitric oxide synthase inhibitor L-NAME or an infusion of 200 nmol/kg of S-methyl-L-cysteine for 10 minutes followed by a 500 nmol/kg bolus dose of S-methyl-L-cysteine. The measurements were then repeated a third time.

[2] = tested on: hypotensive effects of infused S-nitrosocysteine; assay: inhibition of the hypotensive effects of infused S-nitrosocysteine; conditions: in vivo
[3] = rats 72 hours after lipopolysaccharide, L-NAME 25 μmole/kg
[4] = rats 72 hours after lipopolysaccharide

| Structure (SMILES) | number of treated rats that died [1] | mean arterial pressure after treatment [1] | coronary resistance after treatment [1, 3] | heart rate after treatment [1, 3] | total peripheral resistance after treatment [1, 3] | total peripheral resistance after treatment (in words) [1, 4] | coronary blood flow after treatment ([1]; rats 72 hours after lipopolysaccharide, L-NAME 25 μmole/kg, Doppler) | cardiac output after treatment ([1]; rats 72 hours after lipopolysaccharide, L-NAME 25 μmole/kg, Doppler flow) | mean arterial pressure after treatment ([1]; listed as S-methyl cysteine) | coronary blood flow after treatment (in words) ([1]; rats 72 hours after lipopolysaccharide, S-methyl-L-cysteine 200 nmol/kg infusion for 10 minutes + 500 nmol/kg bolus) | effect on the hypotensive effects of infused S-nitrosocysteine [2] |
| --- | --- | --- | --- | --- | --- | --- | --- | --- | --- | --- | --- |
| COC(=O)[C@@H](N)CCCNC(=N)N[N+](=O)[O-] [L-NAME, Nω-nitro-L-arginine methyl ester, reference compound] | 7 | returned mean arterial pressure to baseline values | about 160 % of baseline values | about 60 % of the pre-treatment values | about 160 % of baseline values | increased total peripheral resistance far above normal | about 60 % of the pre-treatment values | about 60 % of the pre-treatment values |  |  |  |
| CSC[C@H](N)C(=O)O [S-methyl-L-cysteine] | none died | attenuated the hypotension induced by lipopolysaccharide |  |  |  | returned to normal values |  |  | returned mean arterial pressure to baseline values | to pre-treatment values | inhibit the hypotensive effects of infused S-nitrosocysteine |
